Experimental data taken from ChEMBL document CHEMBL3507680, “University of Dundee, Gates Library screen for HepG2 cell viability”.

Assay: Human HepG2 cell viability assay in 384 well format
Type: toxicity, cell-based
Design: dose 125 nL, time 70.5 hour; concentration not given beside the values
Conditions: HepG2 cells, read-out: Inhibition

Row | Compound | cytotoxicity at 70.5 h [%]
1 | CSc1cccc(NC(=O)Nc2c(O)oc3ccccc3c2=O)c1 | -11.5
2 | Cc1c2ncn(CC(=O)N(C)C)c(=O)c2nn1C | -8.37
3 | O=c1c2cc3c(cc2nnn1Cc1ccccc1Cl)OCCO3 | 12.4
4 | Cc1nnsc1C(=O)NCCNS(=O)(=O)c1cccs1 | 6.87
5 | O=C(c1ccc(Cn2cc(Br)cn2)cc1)N1CCCC1 | 30.7
6 | CCn1cc(CNC(=O)C(C)C)cn1 | 0.0963
7 | Cc1c(Br)c(C(=O)NC(C)c2ccccc2)nn1C (stereo not drawn) | -13
8 | COCCCNC(=O)C(C)n1cc(Br)cn1 (stereo not drawn) | 16.8
9 | Cc1nn(C)c2c(=O)n(Cc3ccc(C#N)cc3)nnc12 | -10.1
10 | Cc1nn(C)c2c(NCCn3cccn3)ncnc12 | 5.55
11 | Cc1nc(NC2CCCC2)c2c(n1)c(C)nn2C | -14.9
12 | Cc1nc(NC2CC(C)(C)NC(C)(C)C2)c2c(n1)c(C)nn2C | -18.4
13 | Cc1nc(N2CCN(c3ccccc3)CC2)c2c(n1)c(C)nn2C | -2.17
14 | Cc1nc(NCCCn2cccn2)c2c(n1)c(C)nn2C | -3.99
15 | CCc1nc(NCc2ccccn2)c2c(n1)c(C)nn2C | 30.9
16 | Cc1nn(C)c2c(NCCCn3cccn3)nc(C(C)C)nc12 | 16.2
17 | Cc1nn(C)c2c(=O)n(C(C)C)c(NCCc3ccccc3)nc12 | 24.5
18 | CCCn1c(N2CCCCC2)nc2c(C)nn(C)c2c1=O | 15.3
19 | CCOc1ccc(NC(C)=O)cc1S(=O)(=O)Nc1ccon1 | 4.6
20 | COc1ccc(NC(C)=O)cc1S(=O)(=O)Nc1ccon1 | -5.66
21 | CC(C)(C)NCc1nn(Cc2ccccc2)nc1-c1ccccc1 | 5.21
22 | c1ccc(OCCCNCc2cccs2)nc1 | 10.1
23 | Fc1cccc(Cl)c1CNCCCOc1ccccn1 | -3.63
24 | Cc1ccc(CNc2n[nH]c(C)n2)cc1 | -10.9

Row | Compound | cytotoxicity at 70.5 h [%]
25 | Cc1ccc(Cl)cc1N1CCN(CC(=O)NCc2ccco2)CC1 | 7.45
26 | CC(C)c1cc2c(s1)NC(c1ccccc1)NC2=O (stereo not drawn) | -12.1
27 | Cn1c(SCC(N)=O)nnc1-c1csc2c1CCCC2 | -9.11
28 | CCOc1cc(C(=O)n2cc(C)cn2)cc(OCC)c1OCC | 1.34
29 | O=S(=O)(c1ccc(N2CCCCC2)c2nonc12)N1CCCCC1 | -11.2
30 | O=S(=O)(c1cc(F)ccc1F)n1cc(Cl)cn1 | -4.29
31 | NC(=O)c1c(-c2ccc(Cl)cc2Cl)csc1NC(=O)CCCC(=O)O | 4.32
32 | CCn1cc(S(=O)(=O)N2CCN(S(=O)(=O)c3ccc(Br)s3)CC2)cn1 | -12
33 | CCOc1ccc(C(=O)n2cccn2)cc1 | -4.2
34 | CC(C)(C)NC(=O)N1CCN(Cc2cccnc2)CC1 | -3.39
35 | Cc1ccc(NC(=O)N2CCN(Cc3ccccn3)CC2)cc1Cl | 30.4
36 | Cc1c(Cl)cccc1NC(=O)N1CCN(Cc2ccccn2)CC1 | -3.15
37 | Cn1cc(CNS(=O)(=O)c2cc(F)ccc2F)cn1 | -6.49
38 | CCOC(=O)Cn1nnnc1-c1ccccc1 | -0.715
39 | CC(C)NC(=O)COc1ccc(-c2nc(C(C)C)no2)cc1 | -19.4
40 | Cc1ccc(NC(C)(C)c2nnnn2-c2ccc(Cl)cc2)c(C)c1 | 0.988
41 | CC1(C)CC2(CCO1)NC(=O)c1cc(Br)ccc1-n1nnnc12 (stereo not drawn) | 1.03
42 | Cc1cccc(-n2nnnc2C(C)(C)Nc2ccccc2C)c1 | 0.855
43 | COc1ccc(-n2nnnc2C2(NCc3ccco3)CCCCC2)cc1 | -9.96
44 | CN(C)S(=O)(=O)N1CCCC(C)(c2ncc(C(N)=O)s2)C1 (stereo not drawn) | 5.78
45 | Cc1nn(C)c(C)c1-c1cnc(CC2CCNCC2)cn1 | -4.79
46 | Cn1cc(CN2CCOC(c3cccc(-c4cccc(F)c4)n3)C2)cn1 (stereo not drawn) | -4.34
47 | Oc1cc(-c2cccs2)nc(C2CCCN(CC3=CCCOC3)C2)n1 (stereo not drawn) | -9.88
48 | O=C(c1cc2c(s1)CCC2)N1CCCC(c2cnccn2)C1 (stereo not drawn) | -17

Row | Compound | cytotoxicity at 70.5 h [%]
49 | COc1ccc2[nH]cc(C(=O)N3C[C@@H](O)[C@H](N4CCOCC4)C3)c2c1 | -9.96
50 | O=C(NCc1ccccc1)C1CN(c2ccccn2)CCO1 (stereo not drawn) | -15.5
51 | Cc1cncc(C2CCCN2CCO)n1 (stereo not drawn) | -9.94
52 | CNCC(=O)N1CCC(c2cccc(Oc3ccccc3)n2)CC1 | -7.76
53 | c1cc(C2CCCN2CC2CC2)n[nH]1 (stereo not drawn) | -9.13
54 | c1ccc(CCN2CCCC2c2ccnc(Nc3ncccn3)n2)cc1 (stereo not drawn) | -5.57
55 | CCn1ccc(-c2cc(NCCCOc3ccccc3C)nc(C)n2)n1 | -1.9
56 | CCC(=O)N1CCCC1c1n[nH]cc1-c1ccccc1F (stereo not drawn) | -6.39
57 | CC(=O)N1CCOC(c2c(C(=O)NCCN(C)C)sc3ccccc23)C1 (stereo not drawn) | -7.61
58 | CCCn1cc(C(=O)N2CCCC2(C)c2nc(C)cc(C)n2)cn1 (stereo not drawn) | -13.9
59 | Cc1ccnn1CCNC(=O)C1CCN(S(=O)(=O)c2ccc(F)cc2)C1 (stereo not drawn) | 6.47
60 | CCN1CCCC(O)(c2nc(C)c(CCOc3ccc(F)cc3)s2)CC1 (stereo not drawn) | 13.4
61 | CN(C)S(=O)(=O)N1CCC(c2ccncc2)CC1 | -10.2
62 | CNc1nc(C2CCCN(C(=O)C(C)C)C2)nc2c1CN(C)CC2 (stereo not drawn) | 9.57
63 | CN(C)S(=O)(=O)N1CCC(c2ccncn2)CC1 | -11.3
64 | Cc1nc(Nc2ncc(C)s2)cc(C2CCCN2S(C)(=O)=O)n1 (stereo not drawn) | -13.7
65 | CS(=O)(=O)N1CCCC1c1cccc(Nc2nccs2)n1 (stereo not drawn) | 28.9
66 | Cc1cnc2cc(C3CCN(C(=O)c4ccncc4)CC3)[nH]c2n1 | -12.8
67 | CC1(C(=O)NC2CCCC2)CN(c2cnccn2)CCO1 (stereo not drawn) | -13.6
68 | COc1cccc([C@H]2CN(C(=O)c3ccccc3)[C@@H]3CCCN[C@H]23)c1 | 15.6
69 | c1cnc(N2CCCC(c3cc4cccnc4[nH]3)C2)nc1 (stereo not drawn) | -8.49
70 | COCc1ccc(C(=O)N2CCC(c3cc4ncc(C)nc4[nH]3)C2)cc1 (stereo not drawn) | -4.31
71 | c1cnc(N2CCC(c3cc4cccnc4[nH]3)CC2)nc1 | -5.37
72 | O=C(c1cc[nH]n1)N1CCCC1c1cnccn1 (stereo not drawn) | -10.5

Row | Compound | cytotoxicity at 70.5 h [%]
73 | COCC(=O)N1CC(c2csc(NC(C)=O)n2)C1 | -3.83
74 | CNC(=O)c1cn[nH]c1C1CCN(Cc2sccc2C)C1 (stereo not drawn) | -5.33
75 | CNC(=O)c1cn[nH]c1C1CCN(Cc2cccc(C)c2OC)C1 (stereo not drawn) | -3.82
76 | CN(C)c1nccc(C2CCN(C(=O)CO)CC2)n1 | 13.9
77 | CC(=O)N1CCN(CCOc2ccc(F)cc2)CC(C(N)=O)C1 (stereo not drawn) | -9.44
78 | Cc1c(CN2C[C@@H](O)[C@H](Oc3cccc(F)c3)C2)cnn1C | -10.7
79 | CC1(C(=O)N2CCN(C3CCCC3)CC2)CNCCO1 (stereo not drawn) | -7.45
80 | O=C(O)c1ccccc1CN1CCC(c2ccnc3ccnn23)CC1 | -4.52
81 | COC(=O)[C@H]1CN(C(=O)c2cscn2)C[C@@H]1c1ccc(F)cc1 | 0.296
82 | COc1ccc(CC(=O)NC(C)c2nc3cccnc3n2C(C)C)cc1 (stereo not drawn) | 2.45
83 | CCc1c(C)noc1-c1cnc(NC2CC2)nc1-c1cnc(C)cn1 | -7.43
84 | Oc1ccc(C2Nc3ccccc3C3=NCCCN32)cc1 (stereo not drawn) | -2.33
85 | O=C(c1cc[nH]n1)N1CCCC1c1ccccn1 (stereo not drawn) | -4.38
86 | O=C(NC1CC1)C1(Cc2ccccc2-c2ccncc2)CCOCC1 | 7.42
87 | O=C(CCn1c(C(F)F)cc2cccnc21)NC1CC1 | -5.74
88 | Cc1cc2c(=O)n3c(nc2s1)CCN(C(=O)c1nn(C)cc1Cl)CC3 | -4.02
89 | CCn1cc(S(=O)(=O)NCC2(N3CCOCC3)CCCCC2)c(C)n1 | 28.1
90 | Cc1nn(C)cc1S(=O)(=O)NC1(CN2CCOCC2)CCCCC1 | -3.14
91 | Cc1cc(-c2cnc(C(C)C)nc2CN(C)C(=O)c2ccccn2)on1 | -6.43
92 | CCOCC(=O)N1CCC(c2cc3ncccc3c(O)n2)CC1 | -6.58
93 | CC(C)(C)c1nnc(NCC(=O)N2CCc3sccc3C2)s1 | -10.5
94 | COc1ccc(CCNC(=O)NCc2cccc(C(N)=O)c2)cc1OC | -15
95 | CC(C)(NC(=O)c1scnc1Cl)c1ccccc1 | -12.8
96 | CCCc1c(C(=O)N2CCN(Cc3ccccn3)CC2)cnn1C | -14.7

Row | Compound | cytotoxicity at 70.5 h [%]
97 | CCCc1c(C(=O)N2CCN(c3cnccn3)CC2)cnn1C | -14.4
98 | CCN1CCN(C(=O)c2cc(F)cc3nc(C)c(C)nc23)CC1 | -12.2
99 | Cn1ccc(CS(=O)(=O)Cc2cccc(F)c2)cc1=O | -11
100 | Cc1ccc(C)c(CS(=O)(=O)Cc2ccn(C)c(=O)c2)c1 | -7.9
101 | N#Cc1cc(F)ccc1Cn1cncn1 | -9.13
102 | COc1ccc(CNCCc2cccc(C(N)=O)c2)cc1C | 11.7
103 | Cc1cn2c(n1)CCC(NC(=O)c1ccc(OCC3CC3)nc1)C2 (stereo not drawn) | -3.71
104 | CC(C)c1nsc(N2CCn3c(nnc3-c3ccccc3)C2)n1 | -7.62
105 | O=C(Cc1cccc(F)c1F)NS(=O)(=O)c1ccc(Cl)cn1 | -6.06
106 | O=C(CNc1nc(C(F)(F)F)cs1)N1CCc2sccc2C1 | -8.73
107 | FC(F)(F)CCN(Cc1ccon1)C1CCCC1 | -7.02
108 | COc1cccc(CNCCc2cccc(C(N)=O)c2)c1 | -8.65
109 | CNc1nc(CS(=O)(=O)c2ccccc2)cs1 | -7.87
110 | O=C(C1CCC1)N1C[C@@H](c2ccsc2)[C@@H]2CN(C3CCCC3)CC[C@@H]21 | -3.74
111 | Cc1cc(N(C)C)nc(C2CCCNC2)n1 (stereo not drawn) | -1.07
112 | CNC(=O)C1CNCCN1C(=O)c1ccc(C(F)(F)F)nc1C (stereo not drawn) | -5.69
113 | CN1CCCc2cc(-c3cncn3CC(=O)NC(C)(C)C)ccc21 | -16.5
114 | CCOC(=O)c1n[nH]cc1-c1cncn1CCn1nc(C)c(C)c1C | -6.65
115 | CCN1c2ccc(-c3cncn3CC(=O)NC(C)(C)C)cc2CC1C (stereo not drawn) | -7.81
116 | Cc1cc(N(C)C)nc(C2CCCN2)n1 (stereo not drawn) | -3.78
117 | C=C(C)CN1CCN(Cc2cnc(-c3ccccc3C)nc2)CC1 | 23.9
118 | C=C(C)CN1CCN(Cc2cnc(-c3ccc(OC)cc3)nc2)CC1 | 9.18
